Experiments:
Format in all cases: cell-based
[1] = system: A-549 (ATCC CCL-185, monolayer culture of a human lung carcinoma); experiment: Cytotoxicity against A-549 cells, crystal violet staining, approximate IC50; conditions: A549, 72 h, three days of incubation
Experimental: (§1) Its antitumor activity has been detected in vitro by culturing the tumor cells following the methodology described by Bergeron et al. ^16, and by Schroeder et al ^16. Activity against different tumors as mouse lymphoma, human NSC lung carcinoma, human melanoma and human colon carcinoma has been observed.
(§2) Biological activity: Cells were maintained in logarithmic phase of growth in Eagle's Minimum Essential Medium, with Earle's Balanced Salts, with 2.0 mM L-glutamine, with non-essential amino acids, without sodium bicarbonate (EMEM/neaa); suplemented with 10% Fetal Calf Serum (FCS), 10^−2 M sodium bicarbonate and 0,1 g/l penicillin-G+ streptomycin sulfate.
(§3) The tumor cell lines employed have been P-388 (ATCC CCL-46, suspension culture of a lymphoid neoplasm from DBA/2 mouse), A-549 (ATCC CCL-185, monolayer culture of a human lung carcinoma), HT-29 (ATCC HTB-38, monolayer culture of a human colon carcinoma) and MEL-28 (ATCC […], monolayer culture of a human melanoma).
(§4) A-549, HT-29 and MEL-28 were seeded into 16 mm wells at 2×10^4 cells per well in 1 ml aliquots of MEM 10FCS containing the indicated concentration of drug. A separate set of cultures without drug was seeded as control growth to ensure that cells remained in exponential phase of growth. All determinations were carried out in duplicate. After three days of incubation at 37° C., 10% CO2 in a 98% humide atmosphere, the wells were stained with 0.1% Crystal Violet. An aproximate IC50 was determined by comparing the growth in wells with drug to the growth in wells control.
(§5) In Table I are presented the cytotoxicity expressed as IC50 in μg/ml and μM

[2] = system: several mammalian cancer cell lines; experiment: In vitro antitumor activity by culturing tumor cells (overall statement); conditions: mouse lymphoma, human NSC lung carcinoma, human melanoma, human colon carcinoma
Text: as §1

[3] = system: P-388 (ATCC CCL-46, suspension culture of a lymphoid neoplasm from DBA/2 mouse); experiment: Cytotoxicity against P-388 cells, approximate IC50 from growth versus control wells; conditions: P388, 72 h, three days of incubation
Experimental: as §1, §2, §3
as §4, with “P-388 cells” for “A-549, HT-29 and MEL-28”, “1×10^4” for “2×10^4”, “5FCS” for “10FCS”, “an” for “the wells were stained with 0.1% Crystal Violet. An”
as §5

[4] = system: MEL-28 (ATCC HTB-38, monolayer culture of a human melanoma); experiment: Cytotoxicity against MEL-28 cells, crystal violet staining, approximate IC50; conditions: SK-MEL-28, 72 h, three days of incubation
Experimental: as §1, §2, §3, §4, §5

[5] = system: HT-29 (ATCC HTB-38, monolayer culture of a human colon carcinoma); experiment: Cytotoxicity against HT-29 cells, crystal violet staining, approximate IC50; conditions: HT-29, 72 h, three days of incubation
Experimental: as §1, §2, §3, §4, §5

Row | SMILES | IC50 ([1]; duplicate) [ng/mL] | IC50 ([1]; value in brackets) [nM] | antitumor activity against several mammalian cancer cell lines [2] | IC50 ([3]; duplicate) [µg/mL] | IC50 ([3]; value in brackets) [nM] | IC50 ([4]; duplicate) [µg/mL] | IC50 ([4]; value in brackets) [nM] | IC50 ([5]; duplicate) [µg/mL] | IC50 ([5]; value in brackets) [nM]
1 | Cc1cc(=O)[nH]c2c1-c1nc3ccccc3c3ccnc(c13)C2=O [IB-96213, 12-Methyl-9H-benzo[b]pyrido[4,3,2-d,e](1,7)phenantroline-8,10-dione] | 1 | 3 | good antitumor activity | 0.1 | 320 | 0.001 | 3 | 1 | 3180
2 | O=C1c2c(O)ccnc2-c2nc3ccccc3c3ccnc1c23 [IB-98205, 9-hydroxybenzo[b]pyrido[4,3,2-d,e](1,10)phenantrolin-8-one] | 12 | 40 | good antitumor activity | 1.25 | 4180 | 0.05 | 170 | 0.12 | 400
